Results from patent publication US8207177B2, “Inhibitors of E1 activating enzymes” (Millennium Pharmaceuticals, Inc., priority 2006, dated 2012).

Biological target: T1, recombinant human NAE enzyme (Homo sapiens, UniProt Q8TBC4)
T1 construct: His (N); made in house; host or cells: Sf9 insect cells (baculovirus, Bac-to-Bac), purified on Ni-NTA
T1 sequence (Q8TBC4 1-463): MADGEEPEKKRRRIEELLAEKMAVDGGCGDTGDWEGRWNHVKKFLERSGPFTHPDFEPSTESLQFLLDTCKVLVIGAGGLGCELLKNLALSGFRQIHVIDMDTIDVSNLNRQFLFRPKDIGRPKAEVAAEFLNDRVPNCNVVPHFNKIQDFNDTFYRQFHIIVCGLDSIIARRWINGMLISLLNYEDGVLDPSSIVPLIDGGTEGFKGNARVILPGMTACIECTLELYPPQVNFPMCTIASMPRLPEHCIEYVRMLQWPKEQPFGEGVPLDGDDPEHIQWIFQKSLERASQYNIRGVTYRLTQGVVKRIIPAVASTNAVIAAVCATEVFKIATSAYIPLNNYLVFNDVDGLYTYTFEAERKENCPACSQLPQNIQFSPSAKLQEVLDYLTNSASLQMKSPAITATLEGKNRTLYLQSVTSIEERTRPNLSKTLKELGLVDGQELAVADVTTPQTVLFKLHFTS
T1 sequence (Q13564 1-534 partner): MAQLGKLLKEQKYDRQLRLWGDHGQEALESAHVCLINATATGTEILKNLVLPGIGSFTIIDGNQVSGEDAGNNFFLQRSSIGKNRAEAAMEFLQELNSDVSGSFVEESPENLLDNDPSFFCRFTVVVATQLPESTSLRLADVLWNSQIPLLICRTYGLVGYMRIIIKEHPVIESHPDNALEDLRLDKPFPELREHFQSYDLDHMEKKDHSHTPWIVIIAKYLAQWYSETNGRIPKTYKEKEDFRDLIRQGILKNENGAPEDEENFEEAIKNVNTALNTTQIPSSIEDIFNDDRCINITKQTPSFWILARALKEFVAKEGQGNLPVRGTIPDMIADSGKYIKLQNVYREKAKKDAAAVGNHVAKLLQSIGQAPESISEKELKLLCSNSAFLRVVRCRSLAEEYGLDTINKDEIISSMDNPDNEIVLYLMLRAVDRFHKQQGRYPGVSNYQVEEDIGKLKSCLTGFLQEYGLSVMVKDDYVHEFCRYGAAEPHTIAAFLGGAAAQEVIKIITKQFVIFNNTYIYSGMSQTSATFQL
Experiment: Nedd8-Activating Enzyme (NAE) HTRF Assay
Type: biochemical
Settings: threshold statement: less than or equal to 100 nM; 20 μM ATP, 90 minutes at 24° C.
Procedure: Following manufacturer instructions, baculoviruses were generated with the Bac-to-Bac Expression System (Invitrogen) for the following proteins: untagged NAEα (APPBP1; NP_003896.1), N-terminally His-tagged NAEβ (UBE1C; NP_003959.3), untagged SAEα (SAE1; NP_005491.1), N-terminally His-tagged SAEβ (UBA2; NP_005490.1), N-terminally His-tagged murine UAE (UBE1X; NP_033483). NAEα/His-NAEβ and SAEα/His-SAEβ complexes were generated by co-infection of Sf9 cells, which were harvested after 48 hours. His-mUAE was generated by single infection of Sf9 cells and harvested after 72 hours. Expressed proteins were purified by affinity chromatography (Ni—NTA agarose, Qiagen) using standard buffers. Ubc12 (UBE2M; NP_003960.1), Ubc9 (UBE2I; NP_003336.1), Ubc2 (UBE2A; NP_003327.2) were subcloned into pGEX (Pharmacia) and expressed as N-terminally GST tagged fusion proteins in E. coli. Expressed proteins were purified by conventional affinity chromatography using standard buffers. Nedd8 (NP_006147), Sumo-1 (NP_003343) and Ubiquitin (with optimized codons) were subcloned into pFLAG-2 (Sigma) and expressed as N-terminally Flag tagged fusion proteins in E. coli. Expressed proteins were purified by conventional chromatography using standard buffers. Nedd8-Activating Enzyme (NAE) HTRF Assay. The NAE enzymatic reaction totaled 50 μL and contained 50 mM HEPES (pH 7.5), 0.05% BSA, 5 mM MgCl2, 20 μM ATP, 250 μM GSH, 0.01 μM Ubc12-GST, 0.075 μM Nedd8-Flag and 0.28 nM recombinant human NAE enzyme. The enzymatic reaction mixture, with and without compound inhibitor, was incubated at 24° C. for 90 minutes in a 384-well plate before termination with 25 μL of Stop/Detection buffer (0.1M HEPES pH 7.5, 0.05% Tween20, 20 mM EDTA, 410 mM KF, 0.53 nM Europium-Cryptate labeled monoclonal anti-FLAG M2 antibody (CisBio International) and 8.125 μg/mL PHYCOLINK goat anti-GST allophycocyanin (XL-APC) antibody (Prozyme)). After incubation for 3 hours at 24° C., quantification of the FRET was performed on the Analyst™ HT 96.384 (Molecular Devices).

Row | Structure (SMILES) | IC50 [µM]
1 | NS(=O)(=O)OC[C@@H]1C[C@@H](n2ccc3c(NCc4ccc5c(c4)OCO5)ncnc32)C[C@@H]1O [Compound I-26, ((1S,2S,4R)-4-{4-[(1,3-benzodioxol-5-ylmethyl)amino]-7H-pyrrolo[2,3-d]-pyrimidin-7-yl}-2-hydroxycyclopentyl)methyl sulfamate] | ≤ 0.1
2 | NS(=O)(=O)OC[C@@H]1C[C@@H](n2ccc3c(N[C@H]4CCc5cc(Cl)ccc54)ncnc32)C[C@@H]1O [Compound I-27, [(1S,2S,4R)-4-(4-}[(1S)-5-chloro-2,3-dihydro-1H-inden-1-yl]amino}-7H-pyrrolo-[2,3-d]pyrimidin-7-yl)-2-hydroxycyclopentyl]methyl sulfamate] | ≤ 0.1
3 | NS(=O)(=O)OC[C@@H]1C[C@@H](n2ccc3c(CCc4ccccc4)ncnc32)C[C@@H]1O [Compound I-28, {(1S,2S,4R)-2-hydroxy-4-[4-(2-phenylethyl)-7H-pyrrolo[2,3-d]pyrimidin-7-yl]-cyclopentyl}methyl sulfamate] | ≤ 0.1
4 | NS(=O)(=O)OC[C@@H]1C[C@@H](n2ccc3c(NCC4CCCCC4)ncnc32)C[C@@H]1O [Compound I-29, ((1S,2S,4R)-4-{4-[(cyclohexylmethyl)amino]-7H-pyrrolo[2,3-d]pyrimidin-7-yl)-2-hydroxycyclopentyl)methyl sulfamate] | ≤ 0.1
5 | C[C@]1(O)C[C@H](n2ccc3c(N[C@H]4CCc5ccccc54)ncnc32)C[C@H]1COS(N)(=O)=O [Compound I-30, ((1S,2S,4R)-4-{4-[(1S)-2,3-dihydro-1H-inden-1-ylamino]-7H-pyrrolo[2,3-d]-pyrimidin-7-yl}-2-hydroxy-2-methylcyclopentyl)methyl sulfamate] | ≤ 0.1

Further lines, results first:

Row | IC50 [µM] | Structure (SMILES)
6 | ≤ 0.1 | NS(=O)(=O)OC[C@@H]1C[C@@H](n2cc(F)c3c(NCc4ccccc4)ncnc32)C[C@@H]1O [Compound I-31, {(1S,2S,4R)-4-[4-(benzylamino)-5-fluoro-7H-pyrrolo[2,3-d]pyrimidin-7-yl]-2-hydroxycyclopentyl}methyl sulfamate]
7 | ≤ 0.1 | NS(=O)(=O)OC[C@@H]1C[C@@H](n2ccc3c(N[C@H]4CCc5cc(Br)ccc54)ncnc32)C[C@@H]1O [Compound I-33, [(1S,2S,4R)-4-(4-{[(1S)-5-bromo-2,3-dihydro-1H-inden-1-yl]amino}-7H-pyrrolo-[2,3-d]pyrimidin-7-yl)-2-hydroxycyclopentyl]methyl sulfamate]
8 | ≤ 0.1 | NS(=O)(=O)OC[C@@H]1C[C@@H](n2ccc3c(OCc4ccc(Cl)cc4)ncnc32)C[C@@H]1O [Compound I-34, ((1S,2S,4R)-4-{4-[(4-chlorobenzyl)oxy]-7H-pyrrolo[2,3-d]pyrimidin-7-yl}-2-hydroxycyclopentyl)methyl sulfamate]
9 | ≤ 0.1 | NS(=O)(=O)OC[C@@H]1C[C@@H](n2ccc3c(N[C@H]4CCc5cc(F)ccc54)ncnc32)C[C@@H]1O [Compound I-36, [(1S,2S,4R)-4-(4-{[(1S)-5-fluoro-2,3-dihydro-1H-inden-1-yl]amino}-7H-pyrrolo-[2,3-d]pyrimidin-7-yl)-2-hydroxycyclopentyl]methyl sulfamate]
10 | ≤ 0.1 | NS(=O)(=O)OC[C@@H]1C[C@@H](n2ccc3c(N[C@H]4CCCc5ccccc54)ncnc32)C[C@@H]1O [Compound I-37, ((1S,2S,4R)-2-hydroxy-4-{4-[(1S)-1,2,3,4-tetrahydronaphthalen-1-ylamino]-7H-pyrrolo[2,3-d]pyrimidin-7-yl}cyclopentyl)methyl sulfamate]
11 | ≤ 0.1 | NS(=O)(=O)OC[C@@H]1C[C@@H](n2ccc3c(NCc4cccc5ccccc45)ncnc32)C[C@@H]1O [Compound I-38, ((1S,2S,4R)-2-hydroxy-4-{4-[(1-naphthylmethyl)amino]-7H-pyrrolo[2,3-d]-pyrimidin-7-yl}cyclopentyl)methyl sulfamate]
12 | ≤ 0.1 | NS(=O)(=O)OC[C@@H]1C[C@@H](n2ccc3c(Nc4ccccc4)ncnc32)C[C@@H]1O [Compound I-39, [(1S,2S,4R)-4-(4-anilino-7H-pyrrolo[2,3-d]pyrimidin-7-yl)-2-hydroxycyclopentyl]methyl sulfamate]
